Counter-ions that a name gives are not always drawn.
How the values were obtained:
[1] = system: increase in blood pressure induced by epinephrine (anti-α effect); assay: Anti-α effect: reduction of epinephrine-induced increase in blood pressure in anesthetized atropinized dog; format: in vivo; set-up: key: +: for a reduction <50%; ++: for a reduction ≥50%; +++: for an almost complete reduction
Description: The aim of this test is to determine the capacity of the compounds of the invention to reduce the increase in blood pressure induced by epinephrine (anti-αeffect) and the acceleration of the heart rate induced by isoprenaline (anti-βeffect) in the dog previously anesthetized with pentobarbital and atropinized. First, are determined for each dog the dose of epinephrine (between 3 and 10 μg/kg) which causes a reproducible increase in arterial blood pressure of about 133.10^2 Pa and the dose of isoprenaline (1 to 2 μg/kg) which causes a reproducible increase in the heart rate of about 70 beats/minute. The doses of epinephrine and isoprenaline thus determined are injected alternatively every ten minutes and after the two consecutive reference responses have been obtained, a quantity of the test compound is administered by the intravenous route. The percentage reduction of the hypertension caused by the test compound in comparison with the reference hypertension previously obtained (about 100 mm Hg) is recorded. In both cases, the results of the reduction in arterial pressure and heart rate are expressed as follows: […]

[2] = system: acceleration of the heart rate induced by isoprenaline (anti-β effect); assay: Anti-β effect: reduction of isoprenaline-induced acceleration of the heart rate in anesthetized atropinized dog; format: in vivo; set-up: key to Anti-β effect: +: for a reduction <50%; ++: for a reduction ≥50%; +++: for an almost complete reduction
Description: The aim of this test is to determine the capacity of the compounds of the invention to reduce the increase in blood pressure induced by epinephrine (anti-αeffect) and the acceleration of the heart rate induced by isoprenaline (anti-βeffect) in the dog previously anesthetized with pentobarbital and atropinized.
First, are determined for each dog the dose of epinephrine (between 3 and 10 μg/kg) which causes a reproducible increase in arterial blood pressure of about 133.10^2 Pa and the dose of isoprenaline (1 to 2 μg/kg) which causes a reproducible increase in the heart rate of about 70 beats/minute. The doses of epinephrine and isoprenaline thus determined are injected alternatively every ten minutes and after the two consecutive reference responses have been obtained, a quantity of the test compound is administered by the intravenous route.
The percentage reduction of the acceleration of the heart rate caused by the test compound compared with the reference tachycardia previously measured (about 70 beats) is recorded.
In both cases, the results of the reduction in arterial pressure and heart rate are expressed as follows: […]

[3] = system: contractile response to potassium-induced depolarization on isolated rat aorta; assay: Calcium inhibitory properties: antagonism of contractile response to potassium-induced depolarization on isolated rat aorta; set-up: species or system rat (male Wistar); conditions: percent of maximal contraction before incubation, 60 min
Source text: It is well established that the depolarization of a smooth muscle membrane by potassium makes the latter permeable to extracellular calcium and induces muscle contraction. Consequently, the measurement of inhibition of the contractile response to depolarization by potassium or the measurement of relaxation of the tonic contraction on potassium depolarization can provide an evaluation of the potency of a compound as an inhibitor of the membrane permeability to Ca^++ ions. The technique used is the following: The aorta is removed from male Wistar rats weighing about 300 g and cut into strips approximately 40 mm long and 3 mm wide. These fragments are placed in a 25 ml isolated organ bath containing modified Krebs-bicarbonate solution (112 mM NaCL; 5 mM KCl; 25 mM NaHCO3; 1 mM KH2 PO4; 1.2 mM MgSO4; 2.5 mM CaCl2; 11.5 mM glucose, made up to 1000 ml with distilled water) maintained at 37° C. and through which a stream of carbon dioxide is passed. The preparation is connected to a force microsensor and the contractile response is recorded after amplification on a recorder. A tension of 2g is applied to the preparation. This latter is maintained in the modified Krebs-bicarbonate solution for 60 minutes, and then contractions are induced by replacing the Krebsbi-carbonate solution by a Krebs-potassium solution (17 mM NaCl; 100 mM KCl; 25 mM NaHCO3; 1 mM KH2 PO4; 1.2 mM MgSO4; 2.5 mM CaCl2; 11.5 mM glucose; made up to 1000 ml with distilled water). When the contractile response of the preparation has become reproducible, a given amount of the compound of the invention is introduced into the bath. Sixty minutes later a new spasm is induced by potassium depolarization. The results obtained on the aorta under investigation are then expressed in percent of the maximal contractional effect before incubation with the test substance. As examples, the following results were obtained, the compounds of formula (1) being in the form of the free base, the hydrochloride, oxalate or fumarate.

**Q.** With “2-isopropyl 8-methyl 1-{4-[3-(6,7-dimethoxy 1,2,3,4-tetrahydro N-isoquinolin-2-yl)propoxy]benzenesulfonyl}indolizine hydrogen oxalate [Ex. 2]” as the compound, how does the Anti-α effect ([1]; intravenous, 0,065 mg/kg) read?
**A.** +++

**Q.** What about the Anti-β effect ([2]; intravenous, 0,065 mg/kg) of the same compound?
**A.** +++

**Q.** Which Anti-α effect ([1]; intravenous, 0,1 mg/kg) does the source give for COc1ccc(CCN(C)CCCOc2ccc(S(=O)(=O)c3c(C(C)C)cn4ccccc34)cc2)cc1OC [C, reference compound] here?
**A.** +++

**Q.** And the Anti-β effect ([2]; intravenous, 0,1 mg/kg)?
**A.** +++

**Q.** And the “% maximal contractional effect” value ([3]; 10^-8 M, 0.01 µM)?
**A.** 40,1%

**Q.** What about the “% maximal contractional effect” value ([3]; 10^-9 M, 0.001 µM) of the same compound?
**A.** 81,7%

**Q.** For CCCCc1oc2ccc(Br)cc2c1S(=O)(=O)c1ccc(OCCCN(C)CCc2ccc(OC)c(OC)c2)cc1 [Ex. 8, 5-bromo 2-n-butyl 3-{4[3-(N-methyl N-3,4-dimethoxy-β-phenethylamino)propoxy]benzenesulfonyl}benzofuran hydrogen oxalate], which Anti-α effect ([1]; intravenous, 1,5 mg/kg) is on record?
**A.** +++

**Q.** What about the Anti-β effect ([2]; intravenous, 1,5 mg/kg) of the same compound?
**A.** +++

**Q.** What about the “% maximal contractional effect” value ([3]; 10^-6 M, 1 µM) of the same compound?
**A.** 61,5%

**Q.** What about the “% maximal contractional effect” value ([3]; 10^-7 M, 0.1 µM) of the same compound?
**A.** 79,4%

**Q.** COc1ccc(CCN(C)CCCOc2ccc(S(=O)(=O)c3c(C(C)C)c4ccccc4n3CCCN(C)CCc3ccc(OC)c(OC)c3)cc2)cc1OC [Ex. 10, 2-{4-[3-(N-methyl N-3,4-dimethoxy-β-phenethylamino)propoxy]benzenesulfonyl} 1-[3-(N-methyl N-3,4-dimethoxy-β-phenethylamino)propyl] 3-isopropyl indole dioxalate] was tested. Which Anti-α effect ([1]; intravenous, 4,9 mg/kg) did it give?
**A.** +++

**Q.** And the Anti-β effect ([2]; intravenous, 4,9 mg/kg)?
**A.** +++

**Q.** And the “% maximal contractional effect” value ([3]; 10^-7 M, 0.1 µM)?
**A.** 78,9%

**Q.** What about the “% maximal contractional effect” value ([3]; 10^-8 M, 0.01 µM) of the same compound?
**A.** 90,2%

**Q.** Which Anti-α effect ([1]; intravenous, 0,6 mg/kg) does the source give for COc1ccc(CCN(C)CCCOc2ccc(S(=O)(=O)c3c(C(C)C)n(C)c4ccc(Cl)cc34)cc2)cc1OC [Ex. 13, 3-{4-[3-(N-methyl N-3,4-dimethoxy-β-phenethylamino)propoxy]benzenesulfonyl} 5-chloro 2-isopropyl 1-methylindole] here?
**A.** +++

**Q.** What about the “% maximal contractional effect” value ([3]; 10^-7 M, 0.1 µM) of the same compound?
**A.** 35,5%

**Q.** And the “% maximal contractional effect” value ([3]; 10^-8 M, 0.01 µM)?
**A.** 79,2%

**Q.** Which results are given for COc1ccc(CCN(C)CCCOc2ccc(S(=O)(=O)c3c(C(C)C)cn4cccc(C)c34)cc2)cc1OC [Ex. 15, 2-isopropyl 8-methyl 1-{4-[3-(N-methyl N-3,4-dimethoxy-β-phenethylamino)propoxy]benzenesulfonyl}indolizine hydrogen oxalate]?
**A.** Anti-α effect ([1]; intravenous, 0,013 mg/kg): ++ (for a reduction ≥50%); inhibition in vivo at 0.013 mg/kg ([2]; Canis lupus familiaris, intravenous, 0,013 mg/kg): < 50%; % maximal contractional effect ([3]; 10^-8 M, 0.01 µM): 11,1%; % maximal contractional effect ([3]; 10^-9 M, 0.001 µM): 41,0%; % maximal contractional effect ([3]; 10^-10 M, 0.0001 µM): 85,2%

**Q.** Which results are given for CCCCN(CCCC)CCCOc1ccc(S(=O)(=O)c2c(C(C)C)n(C)c3ccc(Cl)cc23)cc1.O=C(O)C(=O)O [Ex. 44, 1-methyl 2-isopropyl 3-{4-[3-(di-n-butylamino)propoxy]benzenesulfonyl} 5-chloro indole hydrogen oxalate]?
**A.** Anti-α effect ([1]; intravenous, 1,2 mg/kg): ++ (for a reduction ≥50%); % maximal contractional effect ([3]; 10^-7 M, 0.1 µM): 69,6%; % maximal contractional effect ([3]; 10^-8 M, 0.01 µM): 85,7%

**Q.** What does the source list for CC(C)c1c(S(=O)(=O)c2ccc(OCCCN(C)C3CCCc4ccccc43)cc2)c2cc(Cl)ccc2n1C.O=C(O)C(=O)O (centres unmarked) [Ex. 47, 1-methyl 2-isopropyl 3-{4-[3-(N-methyl N-1,2,3,4-tetrahydronaphth-1-ylamino)propoxy]benzenesulfonyl} 5-chloro indole hydrogen oxalate]?
**A.** Anti-α effect ([1]; intravenous, 6,6 mg/kg): ++ (for a reduction ≥50%); % maximal contractional effect ([3]; 10^-7 M, 0.1 µM): 75,3%; % maximal contractional effect ([3]; 10^-8 M, 0.01 µM): 88,3%; % maximal contractional effect ([3]; 10^-9 M, 0.001 µM): 91,4%

**Q.** With CCCCN(CCCC)CCCOc1ccc(S(=O)(=O)c2c(C)nn3cccc(C)c23)cc1.O=C(O)C(=O)O [Ex. 49, 3-{4-[3-(di-n-butylamino)propoxy]benzenesulfonyl} 2,4-dimethyl pyrazolo[1,5-a]pyridine hydrogen oxalate] as the compound, how does the Anti-α effect ([1]; intravenous, 0,28 mg/kg) read?
**A.** + (for a reduction <50%)

**Q.** What about the “% maximal contractional effect” value ([3]; 10^-8 M, 0.01 µM) of the same compound?
**A.** 62,9%

**Q.** And the “% maximal contractional effect” value ([3]; 10^-9 M, 0.001 µM)?
**A.** 75,7%

**Q.** With COc1ccc(CCN(C)CCCOc2ccc(S(=O)(=O)c3c(C(C)C)nn4c(C)cccc34)cc2)cc1OC [Ex. 50, 3-{4-[3-(N-methyl N-3,4-dimethoxy-β-phenethylamino)propoxy]benzenesulfonyl} 2-isopropyl 7-methyl pyrazolo[1,5-a]pyridine hydrogen oxalate] as the compound, how does the Anti-α effect ([1]; intravenous, 0,13 mg/kg) read?
**A.** +++

**Q.** What about the Anti-β effect ([2]; intravenous, 0,13 mg/kg) of the same compound?
**A.** +++

**Q.** What about the “% maximal contractional effect” value ([3]; 10^-8 M, 0.01 µM) of the same compound?
**A.** 29,1%

**Q.** What about the “% maximal contractional effect” value ([3]; 10^-9 M, 0.001 µM) of the same compound?
**A.** 65,6%

**Q.** What about the “% maximal contractional effect” value ([3]; 10^-10 M, 0.0001 µM) of the same compound?
**A.** 86,3%

**Q.** Which results are given for COc1ccc(CCN(C)CCCOc2ccc(S(=O)(=O)c3c(C(C)C)c4cccc(C)c4n3C)cc2)cc1OC [Ex. 55, 2-{4-[3-(N-methyl N-3,4-dimethoxy-β-phenethylamino)propoxy]benzenesulfonyl} 3-isopropyl 1,7-dimethyl indole hydrogen oxalate]?
**A.** Anti-α effect ([1]; intravenous, 0,07 mg/kg): +++; Anti-β effect ([2]; intravenous, 0,07 mg/kg): +++; % maximal contractional effect ([3]; 10^-7 M, 0.1 µM): 45,8%; % maximal contractional effect ([3]; 10^-8 M, 0.01 µM): 56,4%; % maximal contractional effect ([3]; 10^-9 M, 0.001 µM): 79%; % maximal contractional effect ([3]; 10^-10 M, 0.0001 µM): 85,7%

**Q.** COc1ccc(CCN(C)CCCOc2ccc([S+]([O-])c3c(C(C)C)c4cc(Cl)ccc4n3C)cc2)cc1OC (stereo not drawn) [Ex. 56, (5-chloro 3-isopropyl 1-methylindo-2yl)4-[3-(N-methyl N-3,4-dimethoxy-β-phenethylamino)propoxy]phenyl sulfoxide hydrogen oxalate] was tested. Which Anti-α effect ([1]; intravenous, 0,67 mg/kg) did it give?
**A.** +++

**Q.** And the “% maximal contractional effect” value ([3]; 10^-7 M, 0.1 µM)?
**A.** 19,8%

**Q.** And the “% maximal contractional effect” value ([3]; 10^-8 M, 0.01 µM)?
**A.** 61,3%

**Q.** And the “% maximal contractional effect” value ([3]; 10^-9 M, 0.001 µM)?
**A.** 78,6%

**Q.** For CCCCN(CCCC)CCCOc1ccc(S(=O)(=O)c2c(C(C)C)c3cc(OC)ccc3n2C)cc1.O=C(O)C(=O)O [Ex. 64, 2-{4-[3-(di-n-butylamino)propoxy]benzenesulfonyl} 3-isopropyl 5-methoxy 1-methyl indole hydrogen oxalate], which Anti-α effect ([1]; intravenous, 0,5 mg/kg) is on record?
**A.** +++

**Q.** What about the “% maximal contractional effect” value ([3]; 10^-7 M, 0.1 µM) of the same compound?
**A.** 69,3%

**Q.** What about the “% maximal contractional effect” value ([3]; 10^-8 M, 0.01 µM) of the same compound?
**A.** 72,6%

**Q.** What about the “% maximal contractional effect” value ([3]; 10^-9 M, 0.001 µM) of the same compound?
**A.** 93,9%

**Q.** Which Anti-α effect ([1]; intravenous, 0,02 mg/kg) does the source give for CCCCN(CCCC)CCCOc1ccc(S(=O)(=O)c2c(C(C)C)cn3cccc(C)c23)cc1 [Ex. 75, 1-{4-[3-(di-n-butylamino)propoxy]benzenesulfonyl} 2-isopropyl 8-methyl indolizine] here?
**A.** ++ (for a reduction ≥50%)

**Q.** And the “% maximal contractional effect” value ([3]; 10^-8 M, 0.01 µM)?
**A.** 9,7%

**Q.** What about the “% maximal contractional effect” value ([3]; 10^-9 M, 0.001 µM) of the same compound?
**A.** 51,4%

**Q.** What about the “% maximal contractional effect” value ([3]; 10^-10 M, 0.0001 µM) of the same compound?
**A.** 83,8%

**Q.** Which Anti-α effect ([1]; intravenous, 0,07 mg/kg) does the source give for COc1ccc(CCN(C)CCCOc2ccc(S(=O)(=O)c3c(C(C)C)cn4c(C)cccc34)cc2)cc1OC [Ex. 79, 2-Isopropyl 5-methyl 1-{4-[3-(N-methyl N-3,4-dimethoxy-β-phenethylamino)propoxy]benzenesulfonyl}indolizine] here?
**A.** +++

**Q.** What about the “% maximal contractional effect” value ([3]; 10^-8 M, 0.01 µM) of the same compound?
**A.** 29,8%

**Q.** What about the “% maximal contractional effect” value ([3]; 10^-9 M, 0.001 µM) of the same compound?
**A.** 77,9%

**Q.** What about the “% maximal contractional effect” value ([3]; 10^-10 M, 0.0001 µM) of the same compound?
**A.** 87,3%
